Patent US20100075368A1, “Media for recovery of microorganism in the presence of antibiotics” (Millipore Corporation, priority 2004, published 2010)

What was measured:
Assay type in all cases: cell-based
[1] = tested on: S. aureus (ATCC 6538); experiment: Direct inoculation of SCDB broth tubes, growth in presence of antibiotic; settings: ciprofloxacin 100 μg/mL in SCDB, 200 cfu
Description: Test tubes containing SCDB media in the presence or absence of magnesium cation or ciprofloxacin antibiotic were inoculated with 200 colony forming units (cfu) of S. aureus (ATCC 6538). Sample A was used with a ciprofloxacin sample (100 μg/mL) and contained no divalent cation constituent. B was used with ciprofloxacin (100 μg/mL) and contained 0.5 M magnesium cation. C was used with a control and contained 0.5M of the same divalent cation of B. D was used with a control and contained no divalent cation.

[2] = tested on: E. coli (ATCC 25922); experiment: Simulated air monitoring: antibiotic disc zone of inhibition on SCDA; settings: Escherichia coli, disc: ofloxacin 5 ug
Description: (§1) One method of monitoring air in an antibiotic manufacturing plant is to impact air onto an agar surface collecting both microorganisms and antibiotic on the agar surface. This test was simulated by spreading microorganisms over an agar surface containing varying amounts of magnesium cation and then placing disks containing antibiotics onto the agar surface. The zone of inhibition around each disk was measured to give an indication of the ability of the medium to neutralize the effect of the antibiotic (method followed is similar to the susceptibility disc test used in clinical microbiology). S. aureus (ATCC 6538), P. aeruginosa (ATCC 9027) or E. coli (ATCC 25922) were spread on the agar surface of SCDA containing 0.1M, 0.2M, 0.3M, 0.4M or 0.5M magnesium cation. Discs impregnated with a known amount of antibiotic were then placed onto the bacteria on the agar plate. Plates were incubated and the zone of inhibition of bacterial growth was measured.

[3] = tested on: P. aeruginosa (ATCC 9027); experiment: as above; settings: Pseudomonas aeruginosa, disc: ofloxacin 5 ug
Description: as §1

[4] = tested on: S. aureus (ATCC 6538); experiment: as above; settings: Staphylococcus aureus, disc: ofloxacin 5 ug
Description: as §1

[5] = ATCC25922, 0.0 M cation in SCDA, streptomycin 10 ug, doxycycline 30 ug
[6] = ATCC25922, 0.1M magnesium cation in SCDA, streptomycin 10 ug, doxycycline 30 ug
[7] = ATCC25922, 0.3M magnesium cation in SCDA, streptomycin 10 ug, doxycycline 30 ug
[8] = ATCC25922, 0.5M magnesium cation in SCDA, streptomycin 10 ug, doxycycline 30 ug
[9] = ATCC9027, 0.0 M cation in SCDA, streptomycin 10 ug, doxycycline 30 ug
[10] = ATCC9027, 0.1M magnesium cation in SCDA, streptomycin 10 ug, doxycycline 30 ug
[11] = ATCC9027, 0.3M magnesium cation in SCDA, streptomycin 10 ug, doxycycline 30 ug
[12] = ATCC9027, 0.5M magnesium cation in SCDA, streptomycin 10 ug, doxycycline 30 ug
[13] = ATCC6538, 0.0 M cation in SCDA, streptomycin 10 ug, doxycycline 30 ug
[14] = ATCC6538, 0.1M magnesium cation in SCDA, streptomycin 10 ug, doxycycline 30 ug
[15] = ATCC6538, 0.3M magnesium cation in SCDA, streptomycin 10 ug, doxycycline 30 ug
[16] = ATCC6538, 0.5M magnesium cation in SCDA, streptomycin 10 ug, doxycycline 30 ug

SMILES: O=C(O)c1cn(C2CC2)c2cc(N3CCNCC3)c(F)cc2c1=O [Ciprofloxacin, ciprofloxacin]
- Result (growth of microorganism) ([1]; 0.5 M magnesium cation added to broth): Growth
- Result (growth of microorganism) ([1]; divalent cation added to broth: None): No growth

SMILES: C[C@H]1c2cccc(O)c2C(=O)C2=C(O)[C@]3(O)C(=O)C(C(N)=O)=C(O)[C@@H](N(C)C)[C@@H]3[C@@H](O)[C@@H]21 [Doxycycline, doxycycline]
- zone of inhibition at 30 µg/disc [2, 5]: 18 mm
- zone of inhibition at 30 µg/disc [2, 6]: 6 mm
- zone of inhibition at 30 µg/disc [2, 7]: 6 mm
- zone of inhibition at 30 µg/disc [2, 8]: 6 mm
- zone of inhibition at 30 µg/disc [3, 9]: 6 mm
- zone of inhibition at 30 µg/disc [3, 10]: 6 mm
- zone of inhibition at 30 µg/disc [3, 11]: 6 mm
- zone of inhibition at 30 µg/disc [3, 12]: 6 mm
- zone of inhibition at 30 µg/disc [4, 13]: 25 mm
- zone of inhibition at 30 µg/disc [4, 14]: 13 mm
- zone of inhibition at 30 µg/disc [4, 15]: 11 mm
- zone of inhibition at 30 µg/disc [4, 16]: 13 mm

SMILES: CC1COc2c(N3CCN(C)CC3)c(F)cc3c(=O)c(C(=O)O)cn1c23 (centres unmarked) [Ofloxacin, ofloxacin]
- zone of inhibition at 5 µg/disc [2, 5]: 26 mm
- zone of inhibition at 5 µg/disc [2, 6]: 13 mm
- zone of inhibition at 5 µg/disc ([2]; ATCC25922, 0.2M magnesium cation in SCDA): 13 mm
- zone of inhibition at 5 µg/disc [2, 7]: 13 mm
- zone of inhibition at 5 µg/disc ([2]; ATCC25922, 0.4M magnesium cation in SCDA): 12 mm
- zone of inhibition at 5 µg/disc [2, 8]: 12 mm
- zone of inhibition at 5 µg/disc [3, 9]: 20 mm
- zone of inhibition at 5 µg/disc [3, 10]: 6 mm
- zone of inhibition at 5 µg/disc ([3]; ATCC9027, 0.2M magnesium cation in SCDA): 6 mm
- zone of inhibition at 5 µg/disc [3, 11]: 6 mm
- zone of inhibition at 5 µg/disc ([3]; ATCC9027, 0.4M magnesium cation in SCDA): 6 mm
- zone of inhibition at 5 µg/disc [3, 12]: 6 mm
- zone of inhibition at 5 µg/disc [4, 13]: 23 mm
- zone of inhibition at 5 µg/disc [4, 14]: 11 mm
- zone of inhibition at 5 µg/disc ([4]; ATCC6538, 0.2M magnesium cation in SCDA): 8 mm
- zone of inhibition at 5 µg/disc [4, 15]: 6 mm
- zone of inhibition at 5 µg/disc ([4]; ATCC6538, 0.4M magnesium cation in SCDA): 7 mm
- zone of inhibition at 5 µg/disc [4, 16]: 6 mm

SMILES: [H]/N=C(/N)N[C@H]1[C@H](O)[C@@H](O)[C@H](O[C@@H]2O[C@@H](C)[C@](O)(C=O)[C@H]2O[C@@H]2O[C@@H](CO)[C@H](O)[C@@H](O)[C@@H]2NC)[C@@H](N/C(N)=N\[H])[C@@H]1O [Streptomycin, streptomycin]
- zone of inhibition at 10 µg/disc [2, 5]: 14 mm
- zone of inhibition at 10 µg/disc [2, 6]: 12 mm
- zone of inhibition at 10 µg/disc [2, 7]: 9 mm
- zone of inhibition at 10 µg/disc [2, 8]: 6 mm
- zone of inhibition at 10 µg/disc [3, 9]: 11 mm
- zone of inhibition at 10 µg/disc [3, 10]: 6 mm
- zone of inhibition at 10 µg/disc [3, 11]: 6 mm
- zone of inhibition at 10 µg/disc [3, 12]: 6 mm
- zone of inhibition at 10 µg/disc [4, 13]: 17 mm
- zone of inhibition at 10 µg/disc [4, 14]: 12 mm
- zone of inhibition at 10 µg/disc [4, 15]: 7 mm
- zone of inhibition at 10 µg/disc [4, 16]: 8 mm
